Source: PubChem BioAssay AID1963830 (Molecular Pharmacology Branch, DTP, NCI, 2024)

System: 922993-354-T-J3-PDC complex spheroid viability
Assay: Anticancer human tumor 922993-354-T-J3-PDC patient-derived endometrial carcinoma cell line growth inhibition [POLQ]
Settings: for IC50: curve of first compound; for viability, T/C: stronger effect = lower value
Summary of the method: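 Growth inhibition in 3D: complex spheroids (tumor PDC, HUVEC, MSC) treated with POLQ inhibitor combinations; where Cmax unknown, highest tested concentration 10 microM, except SN-38 at 1 microM.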

[1] = second compound 0.0316 µM, first compound 0.0316 µM
[2] = second compound 0.0316 µM, first compound 0.1 µM
[3] = second compound 0.0316 µM, first compound 0.316 µM
[4] = second compound 0.0316 µM, first compound 1 µM
[5] = second compound 0.0316 µM, first compound 3.16 µM
[6] = second compound 0.0316 µM, first compound 10 µM
[7] = second compound 0.1 µM, first compound 0.0316 µM
[8] = second compound 0.1 µM, first compound 0.1 µM
[9] = second compound 0.1 µM, first compound 0.316 µM
[10] = second compound 0.1 µM, first compound 1 µM
[11] = second compound 0.1 µM, first compound 3.16 µM
[12] = second compound 0.1 µM, first compound 10 µM
[13] = second compound 0.316 µM, first compound 0.0316 µM
[14] = second compound 0.316 µM, first compound 0.1 µM
[15] = second compound 0.316 µM, first compound 0.316 µM
[16] = second compound 0.316 µM, first compound 1 µM
[17] = second compound 0.316 µM, first compound 3.16 µM
[18] = second compound 0.316 µM, first compound 10 µM
[19] = second compound 1 µM, first compound 0.0316 µM
[20] = second compound 1 µM, first compound 0.1 µM
[21] = second compound 1 µM, first compound 0.316 µM
[22] = second compound 1 µM, first compound 1 µM
[23] = second compound 1 µM, first compound 3.16 µM
[24] = second compound 1 µM, first compound 10 µM
[25] = second compound 3.16 µM, first compound 0.0316 µM
[26] = second compound 3.16 µM, first compound 0.1 µM
[27] = second compound 3.16 µM, first compound 0.316 µM
[28] = second compound 3.16 µM, first compound 1 µM
[29] = second compound 3.16 µM, first compound 3.16 µM
[30] = second compound 3.16 µM, first compound 10 µM
[31] = second compound 10 µM, first compound 0.0316 µM
[32] = second compound 10 µM, first compound 0.1 µM
[33] = second compound 10 µM, first compound 0.316 µM
[34] = second compound 10 µM, first compound 1 µM
[35] = second compound 10 µM, first compound 3.16 µM
[36] = second compound 10 µM, first compound 10 µM
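Note: spheroids exposed to the agents for one week.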
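Throughout, for viability, T/C: 100% = DMSO vehicle control wells.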

C#Cc1c(F)ccc2cc(O)cc(-c3ncc4c(N5CC6CCC(C5)N6)nc(OCC56CCCN5CC(F)C6)nc4c3F)c12 (stereo not given) + Nc1ccc(C#CCN(C(=O)Cc2ncc(C(F)(F)F)cc2C(F)(F)F)c2ccc(F)cc2)nn1
IC50 (second compound 0.0316 µM): > 10 µM
IC50 (second compound 0.1 µM): > 10 µM
IC50 (second compound 0.316 µM): > 10 µM
IC50 (second compound 1 µM): > 10 µM
IC50 (second compound 3.16 µM): > 10 µM
IC50 (second compound 10 µM): > 10 µM
viability, T/C [1]: 109%
viability, T/C [2]: 106%
viability, T/C [3]: 104%
viability, T/C [4]: 102%
viability, T/C [5]: 104%
viability, T/C [6]: 102%
viability, T/C [7]: 105%
viability, T/C [8]: 101%
viability, T/C [9]: 104%
viability, T/C [10]: 101%
viability, T/C [11]: 101%
viability, T/C [12]: 102%
viability, T/C [13]: 109%
viability, T/C [14]: 108%
viability, T/C [15]: 106%
viability, T/C [16]: 103%
viability, T/C [17]: 104%
viability, T/C [18]: 102%
viability, T/C [19]: 105%
viability, T/C [20]: 107%
viability, T/C [21]: 105%
viability, T/C [22]: 106%
viability, T/C [23]: 107%
viability, T/C [24]: 98.2%
viability, T/C [25]: 103%
viability, T/C [26]: 106%
viability, T/C [27]: 104%
viability, T/C [28]: 104%
viability, T/C [29]: 102%
viability, T/C [30]: 100%
viability, T/C [31]: 94.3%
viability, T/C [32]: 99.9%
viability, T/C [33]: 100%
viability, T/C [34]: 99.1%
viability, T/C [35]: 96.9%
viability, T/C [36]: 92.5%

CC1COCCN1c1cc(C2(O)CC3CCC(C2)O3)c2cnn(-c3ccn[nH]3)c2n1 (stereo not given) + Nc1ccc(C#CCN(C(=O)Cc2ncc(C(F)(F)F)cc2C(F)(F)F)c2ccc(F)cc2)nn1
IC50 (second compound 0.0316 µM): 2.08 µM
IC50 (second compound 0.1 µM): 2.16 µM
IC50 (second compound 0.316 µM): 2.27 µM
IC50 (second compound 1 µM): 2.37 µM
IC50 (second compound 3.16 µM): 1.31 µM
IC50 (second compound 10 µM): 0.453 µM
viability, T/C [1]: 102%
viability, T/C [2]: 105%
viability, T/C [3]: 89.1%
viability, T/C [4]: 74.9%
viability, T/C [5]: 35.3%
viability, T/C [6]: 21.3%
viability, T/C [7]: 108%
viability, T/C [8]: 107%
viability, T/C [9]: 98.7%
viability, T/C [10]: 76.7%
viability, T/C [11]: 36.8%
viability, T/C [12]: 16.2%
viability, T/C [13]: 106%
viability, T/C [14]: 102%
viability, T/C [15]: 92.9%
viability, T/C [16]: 75.8%
viability, T/C [17]: 38.9%
viability, T/C [18]: 20.7%
viability, T/C [19]: 105%
viability, T/C [20]: 94.3%
viability, T/C [21]: 89.2%
viability, T/C [22]: 74.7%
viability, T/C [23]: 40.9%
viability, T/C [24]: 14.9%
viability, T/C [25]: 97.8%
viability, T/C [26]: 101%
viability, T/C [27]: 80.4%
viability, T/C [28]: 59.3%
viability, T/C [29]: 26%
viability, T/C [30]: 12.2%
viability, T/C [31]: 99.4%
viability, T/C [32]: 90.9%
viability, T/C [33]: 62.4%
viability, T/C [34]: 22.9%
viability, T/C [35]: 19.4%
viability, T/C [36]: 10.9%

CCc1cc2c(N3CCc4c(cc(Cn5ccnc5)cc4-c4cn(C)nc4C(F)(F)F)C3=O)ccnc2c(OC)n1 + Nc1ccc(C#CCN(C(=O)Cc2ncc(C(F)(F)F)cc2C(F)(F)F)c2ccc(F)cc2)nn1
IC50 (second compound 0.0316 µM): > 10 µM
IC50 (second compound 0.1 µM): > 10 µM
IC50 (second compound 0.316 µM): > 10 µM
IC50 (second compound 1 µM): > 10 µM
IC50 (second compound 3.16 µM): > 10 µM
IC50 (second compound 10 µM): > 10 µM
viability, T/C [1]: 104%
viability, T/C [2]: 103%
viability, T/C [3]: 105%
viability, T/C [4]: 107%
viability, T/C [5]: 107%
viability, T/C [6]: 102%
viability, T/C [7]: 106%
viability, T/C [8]: 102%
viability, T/C [9]: 107%
viability, T/C [10]: 108%
viability, T/C [11]: 106%
viability, T/C [12]: 101%
viability, T/C [13]: 105%
viability, T/C [14]: 102%
viability, T/C [15]: 103%
viability, T/C [16]: 105%
viability, T/C [17]: 103%
viability, T/C [18]: 99.6%
viability, T/C [19]: 105%
viability, T/C [20]: 105%
viability, T/C [21]: 102%
viability, T/C [22]: 108%
viability, T/C [23]: 105%
viability, T/C [24]: 94.3%
viability, T/C [25]: 102%
viability, T/C [26]: 99.5%
viability, T/C [27]: 104%
viability, T/C [28]: 99%
viability, T/C [29]: 106%
viability, T/C [30]: 97.5%
viability, T/C [31]: 99.2%
viability, T/C [32]: 102%
viability, T/C [33]: 99.4%
viability, T/C [34]: 96.6%
viability, T/C [35]: 100%
viability, T/C [36]: 91%

COc1cc2cc(C(=O)CCC(=O)O)sc2cc1OC + Nc1ccc(C#CCN(C(=O)Cc2ncc(C(F)(F)F)cc2C(F)(F)F)c2ccc(F)cc2)nn1
IC50 (second compound 0.0316 µM): > 10 µM
IC50 (second compound 0.1 µM): > 10 µM
IC50 (second compound 0.316 µM): > 10 µM
IC50 (second compound 1 µM): > 10 µM
IC50 (second compound 3.16 µM): > 10 µM
IC50 (second compound 10 µM): > 10 µM
viability, T/C [1]: 104%
viability, T/C [2]: 105%
viability, T/C [3]: 108%
viability, T/C [4]: 102%
viability, T/C [5]: 109%
viability, T/C [6]: 84.6%
viability, T/C [7]: 108%
viability, T/C [8]: 105%
viability, T/C [9]: 103%
viability, T/C [10]: 95.6%
viability, T/C [11]: 104%
viability, T/C [12]: 78.9%
viability, T/C [13]: 102%
viability, T/C [14]: 103%
viability, T/C [15]: 98.3%
viability, T/C [16]: 97.7%
viability, T/C [17]: 102%
viability, T/C [18]: 82.1%
viability, T/C [19]: 102%
viability, T/C [20]: 99.6%
viability, T/C [21]: 108%
viability, T/C [22]: 102%
viability, T/C [23]: 103%
viability, T/C [24]: 81%
viability, T/C [25]: 99%
viability, T/C [26]: 102%
viability, T/C [27]: 98.5%
viability, T/C [28]: 104%
viability, T/C [29]: 105%
viability, T/C [30]: 84%
viability, T/C [31]: 94.6%
viability, T/C [32]: 95.2%
viability, T/C [33]: 97.7%
viability, T/C [34]: 95%
viability, T/C [35]: 104%
viability, T/C [36]: 78.8%

O=C(Nc1ccc(O)c(NS(=O)(=O)c2ccc(F)cc2)c1)c1ccc(-c2ccccc2)cc1 + Nc1ccc(C#CCN(C(=O)Cc2ncc(C(F)(F)F)cc2C(F)(F)F)c2ccc(F)cc2)nn1
IC50 (second compound 0.0316 µM): > 10 µM
IC50 (second compound 0.1 µM): > 10 µM
IC50 (second compound 0.316 µM): > 10 µM
IC50 (second compound 1 µM): > 10 µM
IC50 (second compound 3.16 µM): > 10 µM
IC50 (second compound 10 µM): > 10 µM
viability, T/C [1]: 99.8%
viability, T/C [2]: 107%
viability, T/C [3]: 99.4%
viability, T/C [4]: 102%
viability, T/C [5]: 105%
viability, T/C [6]: 96.2%
viability, T/C [7]: 101%
viability, T/C [8]: 97.6%
viability, T/C [9]: 99.4%
viability, T/C [10]: 97.6%
viability, T/C [11]: 99.1%
viability, T/C [12]: 102%
viability, T/C [13]: 100%
viability, T/C [14]: 100%
viability, T/C [15]: 99.1%
viability, T/C [16]: 95.1%
viability, T/C [17]: 103%
viability, T/C [18]: 105%
viability, T/C [19]: 102%
viability, T/C [20]: 94.8%
viability, T/C [21]: 104%
viability, T/C [22]: 93%
viability, T/C [23]: 105%
viability, T/C [24]: 99%
viability, T/C [25]: 101%
viability, T/C [26]: 97.7%
viability, T/C [27]: 100%
viability, T/C [28]: 97.4%
viability, T/C [29]: 105%
viability, T/C [30]: 103%
viability, T/C [31]: 97.6%
viability, T/C [32]: 99.7%
viability, T/C [33]: 95%
viability, T/C [34]: 99.1%
viability, T/C [35]: 103%
viability, T/C [36]: 102%
